Measurements reported in US6573275B1, “Bicyclic amines” (Syngenta Limited, priority 1995, dated 2003).

Tested on: peach aphid (Myzus persicae)
Test: Insecticidal test against peach aphid, infested Chinese cabbage leaves sprayed
Assay type: in vivo
Conditions: peach aphid (Myzus persicae) on Chinese cabbage leaves, sprayed with 500 ppm composition unless otherwise stated, mortality assessed after 3 days
Experimental: This Example illustrates the insecticidal properties of the compounds of Formula I. The activity of the compounds of Formula I was determined using a variety of pests. The pests were treated with a liquid composition containing 500 parts per million (ppm) by weight of the compound unless otherwise stated. The compositions were made by dissolving the compound in acetone and ethanol (50:50) mixture and diluting the solutions with water containing 0.05% by weight of a wetting agent sold under the trade name “SYNPERONIC” NP8 until the liquid composition contained the required concentration of the compound. “SYNPERONIC” is a Registered Trade Mark.
The test procedure adopted with regard to each pest was basically the same and comprised supporting a number of the pests on a medium which was usually a substrate, a host plant or a foodstuff on which the pests feed, and treating either or both the medium and the pests with the compositions. The mortality of the pests was then assessed at periods usually varying from two to five days after the treatment.
In this test Chinese cabbage leaves were infested with aphids, the infested leaves were sprayed with the test composition, and the mortality assessed after 3 days.

SMILES	Score (grading of mortality)
N#Cc1ccc(N2C3CCC2CC(C#N)(c2cncc(Cl)c2)C3)cc1 (stereo not drawn) [Compound 105]	B (B indicates 40-79% mortality)
N#CC1(c2cncc(Cl)c2)CC2CCC(C1)N2CC=C(F)F (stereo not drawn) [Compound 106, exo-3-(5-chloropyrid-3-yl)-endo-3-cyano-8-(3,3-difluoroprop-2-en-1-yl)-8-azabicyclo[3.2.1]octane]	A (A indicates 80-100% mortality)
N#CC1(c2cncc(Cl)c2)CC2CCC(C1)N2CC(=O)O (stereo not drawn) [Compound 107]	A (A indicates 80-100% mortality)
N#CC1(c2cncc(Cl)c2)CC2CCC(C1)N2Cc1cc(Br)cc(Br)c1 (stereo not drawn) [Compound 108]	A (A indicates 80-100% mortality)
N#CC1(c2cncc(Cl)c2)CC2CCC(C1)N2Cc1ccc(F)c(Cl)c1 (stereo not drawn) [Compound 109, exo-3-(5-chloropyrid-3-yl)-endo-3-cyano-8-(3-chloro-4-fluorobenzyl)-8-azabicyclo[3.2.1]octane]	A (A indicates 80-100% mortality)
N#CC1(c2cncc(Cl)c2)CC2CCC(C1)N2C=O (stereo not drawn) [Compound 110, exo-3-(5-chloropyrid-3-yl)-endo-3-cyano-8-formyl-8-azabicyclo[3.2.1]octane]	A (A indicates 80-100% mortality)
CC(C)OC(=O)N1C2CCC1CC(C#N)(c1cncc(Cl)c1)C2 (stereo not drawn) [Compound 111]	A (A indicates 80-100% mortality)
N#CC1(c2cncc(Cl)c2)CC2CCC(C1)N2S(=O)(=O)c1ccccc1 (stereo not drawn) [Compound 112]	B (B indicates 40-79% mortality)
N#CC1(c2cncc(Cl)c2)CC2CCC(C1)N2Cc1c(F)cc(F)cc1F (stereo not drawn) [Compound 113]	A (A indicates 80-100% mortality)
N#CC1(c2cncc(Cl)c2)CC2CCC(C1)N2Cc1c(F)ccc(F)c1F (stereo not drawn) [Compound 114]	A (A indicates 80-100% mortality)
N#CC(c1ccccc1)N1C2CCC1CC(C#N)(c1cncc(Cl)c1)C2 (stereo not drawn) [Compound 115, exo-3-(5-chloropyrid-3-yl)-endo-3-cyano-8-(a-cyanobenzyl)-8-azabicyclo[3.2.1]octane]	A (A indicates 80-100% mortality)
COC(=O)N1C2CCC1CC(C#N)(c1cncc(Cl)c1)C2 (stereo not drawn) [Compound 116]	A (A indicates 80-100% mortality)
N#CC1(c2cncc(Cl)c2)CC2CCC(C1)N2Cc1ccccn1 (stereo not drawn) [Compound 117, exo-3-(5-chloropyrid-3-yl)-endo-3-cyano-8-(pyrid-2-ylmethyl)-8-azabicyclo[3.2.1]octane]	A (A indicates 80-100% mortality)
N#CC1(c2cncc(Cl)c2)CC2CCC(C1)N2Cc1cccnc1 (stereo not drawn) [Compound 118]	A (A indicates 80-100% mortality)
N#CC1(c2cncc(Cl)c2)CC2CCC(C1)N2Cc1ccncc1 (stereo not drawn) [Compound 119]	A (A indicates 80-100% mortality)
N#CC1(c2ccccn2)CC2CCC(C1)N2CCF (stereo not drawn) [Compound 120]	A (A indicates 80-100% mortality)
C[C@H](c1ccccc1)N1C2CCC1CC(C#N)(c1cncc(Cl)c1)C2 (stereo partly drawn) [Compound 121, (R)-exo-3-(5-chloropyrid-3-yl)-endo-3-cyano-8-(1-phenylethyl)-8-azabicyclo[3.2.1]octane]	A (A indicates 80-100% mortality)
C[C@@H](c1ccccc1)N1C2CCC1CC(C#N)(c1cncc(Cl)c1)C2 (stereo partly drawn) [Compound 122]	A (A indicates 80-100% mortality)
Cc1nc(CN2C3CCC2CC(C#N)(c2cncc(Cl)c2)C3)cs1 (stereo not drawn) [Compound 123, exo-3-(5-chloropyrid-3-yl)-endo-3-cyano-8-((2-methylthiazol-4-yl)methyl)-8-azabicyclo[3.2.1]octane]	A (A indicates 80-100% mortality)
Cc1noc(C)c1CN1C2CCC1CC(C#N)(c1cncc(Cl)c1)C2 (stereo not drawn) [Compound 124, exo-3-(5-chloropyrid-3-yl)-endo-3-cyano-8-((3,5-dimethylisoxazol-4-yl)methyl)-8-azabicyclo[3.2.1]octane]	A (A indicates 80-100% mortality)
N#CC1(c2cncc(Cl)c2)CC2CCC(C1)N2Cc1ccc(Cl)s1 (stereo not drawn) [Compound 125]	A (A indicates 80-100% mortality)
N#CC1(c2cncc(Cl)c2)CC2CCC(C1)N2c1ccc(C(F)(F)F)cn1 (stereo not drawn) [Compound 126]	C (C indicates less than 40% mortality)
N#CC1(c2cncc(Cl)c2)CC2CCC(C1)N2c1cccc(F)n1 (stereo not drawn) [Compound 128, exo-3-(5-chloropyrid-3-yl)-endo-3-cyano-8-(6-fluoropyrid-2-yl)-8-azabicyclo[3.2.1]octane]	A (A indicates 80-100% mortality)

SMILES	Score (grading of mortality)
N#CC1(c2cncc(Cl)c2)CC2CCC(C1)N2c1ccc(F)cc1 (stereo not drawn) [Compound 129]	A (A indicates 80-100% mortality)
N#CC1(c2cncc(Cl)c2)CC2CCC(C1)N2CC(F)(F)C(F)(F)F (stereo not drawn) [Compound 130]	A (A indicates 80-100% mortality)
N#CC1(c2cncc(Cl)c2)CC2CCC(C1)N2CC(F)(F)C(F)F (stereo not drawn) [Compound 131]	A (A indicates 80-100% mortality)
N#CC1(c2cncc(Cl)c2)CC2CCC(C1)N2CC(F)(F)C(F)(F)C(F)(F)F (stereo not drawn) [Compound 132]	A (A indicates 80-100% mortality)
N#CC1(c2cncc(Cl)c2)CC2CCC(C1)N2CC(F)(F)C(F)(F)C(F)(F)C(F)F (stereo not drawn) [Compound 133]	A (A indicates 80-100% mortality)
CN1C2CCC1CC(C#N)(c1cncc(N)c1)C2 (stereo not drawn) [Compound 134, exo-3-(5-aminopyrid-3-yl)-endo-3-cyano-8-methyl-8-azabicyclo[3.2.1]octane]	A (A indicates 80-100% mortality)
N#CC1(c2cncc(Cl)c2)CC2CCC(C1)N2C(C(N)=O)c1ccccc1 (stereo not drawn) [Compound 135, exo-3-(5-chloropyrid-3-yl)-endo-3-cyano-8-(a-carbamylbenzyl)-8-azabicyclo[3.2.1]octane]	A (A indicates 80-100% mortality)
N#CC1(c2cncc(Cl)c2)CC2CCC(C1)N2c1cccc(C(F)(F)F)n1 (stereo not drawn) [Compound 136]	C (C indicates less than 40% mortality)
N#CC1(c2cncc(Cl)c2)CC2CCC(C1)N2c1cccc(Cl)n1 (stereo not drawn) [Compound 137]	C (C indicates less than 40% mortality)
N#CC1(c2cncc(Cl)c2)CC2CCC(C1)N2C(=S)S (stereo not drawn) [Compound 138, exo-3-(5-chloropyrid-3-yl)-endo-3-cyano-8-(mercaptothiocarbonyl)-8-azabicyclo[3.2.1]octane]	A (A indicates 80-100% mortality)
CC(C)(C)N1C2CCC1CC(C#N)(c1cncc(Cl)c1)C2 (stereo not drawn) [Compound 139, exo-3-(5-chloropyrid-3-yl)-endo-3-cyano-8-(tert-butyl)-8-azabicyclo[3.2.1]octane]	A (A indicates 80-100% mortality)
CCOC(=O)CCN1C2CCC1CC(C#N)(c1cncc(Cl)c1)C2 (stereo not drawn) [Compound 140, exo-3-(5-chloropyrid-3-yl)-endo-3-cyano-8-(2-(ethoxycarbonyl)ethyl)-8-azabicyclo[3.2.1]octane]	A (A indicates 80-100% mortality)
N#CC1(c2cncc(Cl)c2)CC2CCC(C1)N2CCC(=O)O (stereo not drawn) [Compound 141, exo-3-(5-chloropyrid-3-yl)-endo-3-cyano-8-(2-carboxyethyl)-8-azabicyclo[3.2.1]octane]	A (A indicates 80-100% mortality)
N#CC1(c2cncc(Cl)c2)CC2CCC(C1)N2CC(F)F (stereo not drawn) [Compound 142, exo-3-(5-chloropyrid-3-yl)-endo-3-cyano-8-(2,2-difluoroethyl)-8-azabicyclo[3.2.1]octane]	A (A indicates 80-100% mortality)
N#CC1(c2cncc(Br)c2)CC2CCC(C1)N2CC(F)(F)F (stereo not drawn) [Compound 143]	A (A indicates 80-100% mortality)
N#CC1(c2cncc(Cl)c2)CC2CCC(C1)N2C(=O)F (stereo not drawn) [Compound 144, exo-3-(5-chloropyrid-3-yl)-endo-3-cyano-8-(fluorocarbonyl)-8-azabicyclo[3.2.1]octane]	A (A indicates 80-100% mortality)
CN(C(=O)N1C2CCC1CC(C#N)(c1cncc(Cl)c1)C2)c1ccccc1 (stereo not drawn) [Compound 145]	A (A indicates 80-100% mortality)
CC(C)(C)NC(=O)N1C2CCC1CC(C#N)(c1cncc(Cl)c1)C2 (stereo not drawn) [Compound 146, exo-3-(5-chloropyrid-3-yl)-endo-3-cyano-8-(tert-butylcarbamyl)-8-azabicyclo[3.2.1]octane]	A (A indicates 80-100% mortality)
CN1C2CCC1CC(C#N)(c1cncc(I)c1)C2 (stereo not drawn) [Compound 147, exo-3-(5-iodopyrid-3-yl)-endo-3-cyano-8-methyl-8-azabicyclo[3.2.1]octane]	A (A indicates 80-100% mortality)
CN1C2CCC1CC(C#N)(c1cncc(O)c1)C2 (stereo not drawn) [Compound 148, exo-3-(5-hydroxypyrid-3-yl)-endo-3-cyano-8-methyl-8-azabicyclo[3.2.1]octane]	B (B indicates 40-79% mortality)
N#CC1(c2cncc(Cl)c2)CC2CCC(C1)N2C(=O)N1CCOCC1 (stereo not drawn) [Compound 149]	A (A indicates 80-100% mortality)
CC(C)N(C(=O)N1C2CCC1CC(C#N)(c1cncc(Cl)c1)C2)C(C)C (stereo not drawn) [Compound 150, exo-3-(5-chloropyrid-3-yl)-endo-3-cyano-8-(diisopropylcarbamyl)-8-azabicyclo[3.2.1]octane]	A (A indicates 80-100% mortality)
